Measured values published in patent publication US12685715B2, “Compositions, methods of treatment, and containers including compositions” (University of Florida Research Foundation, Inc., priority 2018, dated 2026).

What was measured:
[1] = Cysteamine degradation in eye drop bottles with OMAC film barrier / combined approach, drops withdrawn periodically; type: physicochemical; conditions: calculated, 30 μL drop
Procedure: To explore the effect of any alterations in packaging, it was considered more realistic to use a commercial eye drop bottle. […] As these systems were in a nearly closed system, evaporation was not a concern, so they could be run for longer durations of time compared to the anti-oxidant experiments performed open to atmosphere. At certain time intervals, the screw cap was removed, and the bottle was squeezed to eject one drop. The mass of the drop was measured, and the drop was diluted 100 fold by PBS. This diluted solution was then measured by UV-vis spectrophotometry to determine the degradation of cysteamine.
Catalase (0.15%) was added to the cysteamine solution, which was nitrogen purged for an additional half hour. The solution was then placed in the bottle and topped with a 1.0 cm layer of 50% (v/v) soybean oil and 50% vitamin E. The bottle was then capped and tested for degradation of cysteamine while periodically withdrawing eye drop samples, as described in section 2.2.2.2.

[2] = Cysteamine degradation in anti-oxidant formulations, vials exposed to atmospheric oxygen (UV-vis); type: physicochemical
Procedure: All formulations containing hydrophilic components (SUR, CAT) were prepared by stirring at room temperature till dissolution. All formulations were tested for pH and adjusted to 7.4 if required. For each formulation, 20 mL of liquid was placed into a 22 mL, flat bottom, 28 mm diameter, glass vial (Fisher Scientific). Each formulation was purged with nitrogen gas for two hours to minimize dissolved oxygen. After purging, 2.0±0.1 mg cysteamine was added to each formulation to achieve a concentration of 0.1 mg mL^−1 which is about one-fourth of the concentration in the commercial formulation. We are interested in the relative changes in degradation rates by addition of anti-oxidants so reducing concentration will not be a significant factor. […] The vials were then left exposed to atmospheric oxygen to ensure that the degradation rates were not limited by availability of oxygen. The formulations were periodically sampled for measurement of UV spectra in 190-350 nm range (Thermo Scientific™ GENESYS™ 10S UV-Vis Spectrophotometer). The spectra of cysteamine and the oxidation product cystamine are sufficiently different so the combined spectra obtained from the samples can be separated via a least square fit to yield the concentrations of both components. After analyzing, the solution was returned to the vial to conserve total volume. […]

## NCCS [cysteamine, Cysteamine]
[1]
  degradation rate from air entering the bottle after each drop: roughly 10 μg/hr
[2]; 0.1 mg mL^−1 of cysteamine
  degradation rate: 126 ± 4 µg/h
[2]; 4.4 mg mL^−1 of cysteamine
  degradation rate: 132 ± 15 µg/h
